Consider two molecules from ChEMBL document CHEMBL3045472, “Synthesis and evaluation of some novel methylene-bridged aryl semicarbazones as potential anticonvulsant agents” (Med Chem Res, 2012).

The subject of data set [1] is Mus musculus. The data set is described as follows: Anticonvulsant activity in Mus musculus albino (mouse) assessed as decrease in pentylenetetrazole-induced total seizure time at 15 mg/kg, ip administered 30 min followed by pentylenetetrazole induction measured for 30 min (reference value: 9.9 +/- 1.3 secs). The data set is classed as functional. Conditions: route intraperitoneal.

Data set [2] relates to Mus musculus. Kind of data set: Anticonvulsant activity in pentylenetetrazole-induced Mus musculus albino (mouse) seizure model assessed as survival at 15 mg/kg, ip administered 30 min followed by pentylenetetrazole induction measured for 30 min relative to control. Type of data set: functional. Conditions: 0.5 h, route intraperitoneal.
In data set [3] the test system is Mus musculus. The data set is described as follows: Anticonvulsant activity in Mus musculus albino (mouse) assessed as increase in onset of pentylenetetrazole-induced seizure at 15 mg/kg, ip administered 30 min followed by pentylenetetrazole induction measured for 30 min (reference value: 184 +/- 32 secs). The data set is classed as functional. Conditions: route intraperitoneal.

Data set [4] deals with Mus musculus. Kind of data set: Anticonvulsant activity in Mus musculus albino (mouse) assessed as protection against pentylenetetrazole-induced seizure at 15 mg/kg, ip administered 30 min followed by pentylenetetrazole induction measured for 30 min relative to control. Type of data set: functional. Conditions: route intraperitoneal.
In data set [5] the test system is Mus musculus. The data set is described as follows: Neurotoxicity in Mus musculus albino (mouse) assessed as minimal motor impairment at 15 mg/kg, ip measured for 180 secs by rotorod test. Type of data set: toxicity, organism-based. Conditions: in vivo, 0.05 h. The arrangement: dose 15 mg/kg, route intraperitoneal.
Data set [6] has as its system Mus musculus. The data set is described as follows: Anticonvulsant activity in pentylenetetrazole-induced Mus musculus albino (mouse) seizure model assessed as death time at 15 mg/kg, ip administered 30 min followed by pentylenetetrazole induction measured for 30 min (reference value: 416 +/- 58.2 secs). Type of data set: functional. Conditions: route intraperitoneal.

For data set [7], the system named is Mus musculus. The data set is described as follows: Anticonvulsant activity in pentylenetetrazole-induced Mus musculus albino (mouse) seizure model assessed as survival at 220 mg/kg, ip administered 30 min followed by pentylenetetrazole induction measured for 30 min relative to control. Conditions: 0.5 h, route intraperitoneal. The data set is classed as functional.

For data set [8], the system named is Mus musculus. Kind of data set: Anticonvulsant activity in Mus musculus albino (mouse) assessed as decrease in pentylenetetrazole-induced total seizure time at 220 mg/kg, ip administered 30 min followed by pentylenetetrazole induction measured for 30 min (reference value: 9.9 +/- 1.3 secs). Type of data set: functional. Conditions: route intraperitoneal.
Data set [9] deals with Mus musculus. Kind of data set: Anticonvulsant activity in pentylenetetrazole-induced Mus musculus albino (mouse) seizure model assessed as death time at 220 mg/kg, ip administered 30 min followed by pentylenetetrazole induction measured for 30 min (reference value: 416 +/- 58.2 secs). The data set is classed as functional. Conditions: route intraperitoneal.
In data set [10] the test system is Mus musculus. Kind of data set: Anticonvulsant activity in Mus musculus albino (mouse) assessed as increase in onset of pentylenetetrazole-induced seizure at 220 mg/kg, ip administered 30 min followed by pentylenetetrazole induction measured for 30 min (reference value: 184 +/- 32 secs). Conditions: route intraperitoneal. Type of data set: functional.
Data set [11] has as its system Mus musculus. Kind of data set: Neurotoxicity in Mus musculus albino (mouse) assessed as minimal motor impairment at 220 mg/kg, ip measured for 180 secs by rotorod test. Type of data set: toxicity, organism-based. The arrangement: dose 220 mg/kg, route intraperitoneal. The note with it: in vivo, 0.05 h.
The test system of data set [12] is Mus musculus. Kind of data set: Anticonvulsant activity in Mus musculus albino (mouse) assessed as protection against pentylenetetrazole-induced seizure at 220 mg/kg, ip administered 30 min followed by pentylenetetrazole induction measured for 30 min relative to control. Type of data set: functional. Conditions: route intraperitoneal.

Take `CCC1(c2ccccc2)C(=O)NC(=O)NC1=O` [PHENOBARBITAL]: the Time with Mus musculus [1] is 2.2 s; in the data set with Mus musculus [3], 1088 s; with Mus musculus [6], 1800 s. In the data set with Mus musculus [2], the survival at 15 mg/kg was determined as 100%. In addition, the Activity was 50% with Mus musculus [4] and “Non-toxic” with Mus musculus [5].
As for `CCCC(CCC)C(=O)[O-].[Na+]` [VALPROATE SODIUM], the survival at 220 mg/kg in the data set with Mus musculus [7] was determined as 100%. The Time is recorded as 2.3 s in the data set on Mus musculus [8], 1800 s in the data set on Mus musculus [9] and 1207 s in the data set with Mus musculus [10]. In addition, the Activity entry in the data set with Mus musculus [11] is reported as “Non-toxic”; with Mus musculus [12] it was 50%.
